In general, pIC50 refers to −log10 of the IC50, conventionally taken in molar units. As a reminder, the pKi is −log10 of the Ki, conventionally taken in molar units.

These results are taken from ChEMBL document CHEMBL4811239, “Insertion of metal carbenes into the anilinic N-H bond of unprotected aminobenzenesulfonamides delivers low nanomolar inhibitors of human carbonic anhydrase IX and XII isoforms” (Eur J Med Chem, 2021).

Assay [1] concerns MDA-MB-231. In words: Antiproliferative activity against human MDA-MB-231 cells assessed as reduction in cell viability after 72 hrs under normoxic condition by MTT assay. The note with it: MDA-MB-231, 72 h. (Tetrazolium assays rely on reduction of a dye to a coloured formazan, in cell work by metabolically active cells.)
In assay [2] the test system is MDA-MB-231. The assay is described as follows: Antiproliferative activity against human MDA-MB-231 cells assessed as reduction in cell viability after 72 hrs under hypoxic condition by MTT assay. The note with it: MDA-MB-231, 72 h.
Assay [3] relates to MCF7. The assay is described as follows: Antiproliferative activity against human MCF7 cells assessed as reduction in cell viability after 72 hrs under hypoxic condition by MTT assay. The note with it: MCF7, 72 h.
Assay [4] deals with MCF7. The assay is described as follows: Antiproliferative activity against human MCF7 cells assessed as reduction in cell viability after 72 hrs under normoxic condition by MTT assay. The note with it: MCF7, 72 h.
Another assay addresses Carbonic anhydrase 1 (Homo sapiens, UniProt P00915). The assay is described as follows: Inhibition of recombinant human CA1 pre-incubated for 15 mins prior to testing by phenol red-based stopped-flow CO2 hydration assay.
For a further assay, the target named is Carbonic anhydrase 9 (Homo sapiens, UniProt Q16790). In words: Inhibition of recombinant human CA9 pre-incubated for 15 mins prior to testing by phenol red-based stopped-flow CO2 hydration assay.
Another assay concerns the target Carbonic anhydrase 12 (Homo sapiens, UniProt O43570). In words: Inhibition of recombinant human CA12 pre-incubated for 15 mins prior to testing by phenol red-based stopped-flow CO2 hydration assay.
Assay [5] relates to MCF7. The assay is described as follows: Antiproliferative activity against human MCF-7 cells assessed as cell survival at 100 uM after 72 hrs under normoxic condition by MTT assay. Particulars: for viability at 100 µM: read-out: Activity. It counts as functional.
Assay [6] has as its system MCF7. In words: Antiproliferative activity against human MCF7 cells assessed as cell survival at 100 uM after 72 hrs under hypoxic condition by MTT assay. The format is functional. The note with it: for viability at 100 µM: read-out: Activity.
Assay [7] is described as follows: Antiproliferative activity against human WI26VA4 cells assessed as reduction in cell viability after 72 hrs under normoxic condition by MTT assay. The note with it: WI26VA4, 72 h.
The nature of assay [8]: Antiproliferative activity against human WI26VA4 cells assessed as reduction in cell viability after 72 hrs under hypoxic condition by MTT assay. Particulars: WI26VA4, 72 h.
Assay [9] deals with MDA-MB-231. The assay is described as follows: Antiproliferative activity against human MDA-MB-231 cells assessed as reduction in cell viability at 100 uM after 72 hrs under normoxic condition by MTT assay. The format is functional.
The test system of assay [10] is MDA-MB-231. In words: Antiproliferative activity against human MDA-MB-231 cells assessed as reduction in cell viability at 100 uM after 72 hrs under hypoxic condition by MTT assay. The format is functional.

Each structure is given as a SMILES string. pIC50, pKi: −log10 of the molar value. Activity calls are given as the source filed them. The calls are words filed in the database; no cut-off is given here.

Carbonic anhydrase 12, sequence (O43570 whole entry): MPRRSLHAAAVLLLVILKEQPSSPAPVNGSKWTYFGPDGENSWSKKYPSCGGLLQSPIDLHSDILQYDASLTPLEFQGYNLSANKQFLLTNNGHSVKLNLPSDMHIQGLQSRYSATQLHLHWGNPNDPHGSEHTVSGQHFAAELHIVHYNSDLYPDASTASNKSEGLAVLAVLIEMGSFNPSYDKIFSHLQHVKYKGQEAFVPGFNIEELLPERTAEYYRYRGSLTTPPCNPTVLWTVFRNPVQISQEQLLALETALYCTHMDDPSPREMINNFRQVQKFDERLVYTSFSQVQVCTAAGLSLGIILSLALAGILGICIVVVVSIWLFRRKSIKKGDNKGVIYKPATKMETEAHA
Carbonic anhydrase 1, sequence (P00915 whole entry): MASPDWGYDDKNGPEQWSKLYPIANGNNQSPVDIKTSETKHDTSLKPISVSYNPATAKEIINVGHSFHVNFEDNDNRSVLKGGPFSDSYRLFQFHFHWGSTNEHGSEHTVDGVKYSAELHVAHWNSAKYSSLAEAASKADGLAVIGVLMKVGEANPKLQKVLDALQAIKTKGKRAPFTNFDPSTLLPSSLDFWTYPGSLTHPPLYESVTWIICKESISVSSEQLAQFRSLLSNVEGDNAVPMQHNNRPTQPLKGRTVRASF

`Cc1ccc(N2C(=O)C(Cc3ccc(Cl)cc3)=C(Nc3cccc(S(N)(=O)=O)c3)C2=O)cc1`: the pIC50 with MDA-MB-231 [1] was 4.43; in the assay on MDA-MB-231 [2], 4.43; in the assay with MCF7 [3] it was 4.82; with MCF7 [4] it was 4.83; in assay [7] it was 4.66; in [8], 4.45. In addition, the figures for the negative-log Ki (pKi) at Carbonic anhydrase 1, at Carbonic anhydrase 9 and at Carbonic anhydrase 12 were under 5.00, 6.20 and 5.97, respectively. Besides, the viability at 100 µM with MCF7 [5] and in the assay on MCF7 [6] was 10% each time.
On to `Cc1ccc(N2C(=O)C(Cc3ccc(Cl)cc3)=C(Nc3ccc(S(N)(=O)=O)cc3)C2=O)cc1`, for which the negative-log IC50 (pIC50) was 4.78 with MDA-MB-231 [1]; 4.81 with MDA-MB-231 [2]; 4.94 with MCF7 [3]; 4.96 with MCF7 [4]; 4.66 in [7]; 4.58 in [8]. Also, the pKi is under 5.00 on Carbonic anhydrase 1, 7.09 on Carbonic anhydrase 9 and 6.89 at Carbonic anhydrase 12. For the same molecule, the viability at 100 µM with MCF7 [5] and in the assay with MCF7 [6] was 10% in each case.
On to `CC(C)OC(=O)C(Nc1ccc(S(N)(=O)=O)cc1)C(=O)OC(C)C`, for which the pKi is 6.98 on Carbonic anhydrase 1, 7.55 on Carbonic anhydrase 9 and 7.21 at Carbonic anhydrase 12. The outcome in the assay on MDA-MB-231 [9], in the assay on MDA-MB-231 [10], with MCF7 [5] and with MCF7 [6] was inactive.
In the case of `CC(C)C(C(=O)Nc1ccc(S(N)(=O)=O)cc1)C(=O)c1ccccc1` (stereo not given), the pKi on Carbonic anhydrase 1 was 6.74; at Carbonic anhydrase 9, 7.52; at Carbonic anhydrase 12, 7.45. Besides, the result in the assay with MDA-MB-231 [9], with MDA-MB-231 [10], with MCF7 [5] and with MCF7 [6] was inactive.
For the molecule `NS(=O)(=O)c1ccc(NC2CCN(c3ccccc3)C2=O)cc1` (stereo not given), the figures for the negative logarithm of the Ki (pKi) at Carbonic anhydrase 1, at Carbonic anhydrase 9 and at Carbonic anhydrase 12 were 7.21, 8.02 and 7.60, respectively. In addition, the result with MDA-MB-231 [9], with MDA-MB-231 [10], in the assay on MCF7 [5] and in the assay on MCF7 [6] was inactive.
`NS(=O)(=O)c1ccc(NCC(=O)N2CCN(Cc3ccc(Cl)cc3)CC2)cc1`: the pKi at Carbonic anhydrase 1 is 6.83; at Carbonic anhydrase 9, 7.67; at Carbonic anhydrase 12, 7.95. The result in the assay on MDA-MB-231 [9], with MDA-MB-231 [10], in the assay with MCF7 [5] and with MCF7 [6] was inactive.
